For eleven compounds, logD, IC50 and Ki results are on record in ChEMBL document CHEMBL1148338, “Structure-activity relationships at monoamine transporters for a series of N-substituted 3alpha-(bis[4-fluorophenyl]methoxy)tropanes: comparative molecular field analysis, synthesis, and pharmacological evaluation” (J Med Chem, 2004).

SMILES strings stand for the structures.

Series [1] can be described thus: Partition coefficient (logD). The note with it: octanol/water.
The species entered for another series is Rattus norvegicus. In words: Compound was tested for inhibition of [3H]dopamine uptake (DAUI) in rat synaptosomes. Type of series: functional. The conditions noted are these: Brain.
The target in series [2] is Sodium-dependent serotonin transporter (Rattus norvegicus, UniProt P31652). In words: Binding affinity at serotonin transporter in rat brain by [3H]-citalopram displacement. Type of series: tissue-based.
Series [3] concerns the target Norepinephrine transporter (Rattus norvegicus, UniProt Q9WTR4). In words: Displacement of [3H]nisoxetine from norepinephrine transporter (NET) of rat brain. The series is classed as tissue-based.
For series [4], the target named is Sodium-dependent dopamine transporter (Rattus norvegicus, UniProt P23977). In words: biochemical. Type of series: tissue-based, Brain.
Description: Binding affinity at dopamine transporter in rat brain by [3H]WIN-35428 displacement.
Series [5] concerns the target T1, Muscarinic acetylcholine receptor M1 (Rattus norvegicus, UniProt P08482).
T1 sequence (P08482 whole entry): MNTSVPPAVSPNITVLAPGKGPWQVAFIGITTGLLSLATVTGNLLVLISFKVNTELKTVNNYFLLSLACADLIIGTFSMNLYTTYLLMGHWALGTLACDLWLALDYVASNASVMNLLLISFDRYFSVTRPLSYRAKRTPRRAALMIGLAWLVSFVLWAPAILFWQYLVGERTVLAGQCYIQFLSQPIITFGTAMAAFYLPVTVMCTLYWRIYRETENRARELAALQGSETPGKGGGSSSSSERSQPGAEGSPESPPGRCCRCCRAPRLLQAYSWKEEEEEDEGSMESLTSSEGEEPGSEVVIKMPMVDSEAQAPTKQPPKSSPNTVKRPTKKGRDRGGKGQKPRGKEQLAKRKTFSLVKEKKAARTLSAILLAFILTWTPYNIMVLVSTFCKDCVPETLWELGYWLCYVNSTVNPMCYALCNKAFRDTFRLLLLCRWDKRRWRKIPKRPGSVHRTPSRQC
In words: Binding affinity at muscarinic M1 receptor in rat brain by [3H]pirenzepine displacement. The series is classed as tissue-based.

Sequence of Norepinephrine transporter (Q9WTR4 whole entry): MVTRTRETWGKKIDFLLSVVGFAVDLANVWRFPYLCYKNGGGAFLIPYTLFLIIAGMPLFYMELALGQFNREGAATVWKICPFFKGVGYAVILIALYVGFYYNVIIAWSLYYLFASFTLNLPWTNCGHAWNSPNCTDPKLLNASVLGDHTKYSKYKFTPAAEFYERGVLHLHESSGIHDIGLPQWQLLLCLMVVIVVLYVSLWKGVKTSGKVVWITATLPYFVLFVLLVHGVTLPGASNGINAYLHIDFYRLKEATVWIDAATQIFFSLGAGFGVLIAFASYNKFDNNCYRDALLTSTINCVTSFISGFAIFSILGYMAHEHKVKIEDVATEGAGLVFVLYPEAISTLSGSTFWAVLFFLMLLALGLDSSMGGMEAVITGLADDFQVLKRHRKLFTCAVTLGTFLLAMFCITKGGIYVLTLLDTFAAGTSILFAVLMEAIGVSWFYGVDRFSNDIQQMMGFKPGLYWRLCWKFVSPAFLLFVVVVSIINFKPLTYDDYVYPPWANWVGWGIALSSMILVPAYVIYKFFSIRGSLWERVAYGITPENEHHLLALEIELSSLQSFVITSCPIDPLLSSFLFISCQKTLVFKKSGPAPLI
Sequence of Sodium-dependent serotonin transporter (P31652 whole entry): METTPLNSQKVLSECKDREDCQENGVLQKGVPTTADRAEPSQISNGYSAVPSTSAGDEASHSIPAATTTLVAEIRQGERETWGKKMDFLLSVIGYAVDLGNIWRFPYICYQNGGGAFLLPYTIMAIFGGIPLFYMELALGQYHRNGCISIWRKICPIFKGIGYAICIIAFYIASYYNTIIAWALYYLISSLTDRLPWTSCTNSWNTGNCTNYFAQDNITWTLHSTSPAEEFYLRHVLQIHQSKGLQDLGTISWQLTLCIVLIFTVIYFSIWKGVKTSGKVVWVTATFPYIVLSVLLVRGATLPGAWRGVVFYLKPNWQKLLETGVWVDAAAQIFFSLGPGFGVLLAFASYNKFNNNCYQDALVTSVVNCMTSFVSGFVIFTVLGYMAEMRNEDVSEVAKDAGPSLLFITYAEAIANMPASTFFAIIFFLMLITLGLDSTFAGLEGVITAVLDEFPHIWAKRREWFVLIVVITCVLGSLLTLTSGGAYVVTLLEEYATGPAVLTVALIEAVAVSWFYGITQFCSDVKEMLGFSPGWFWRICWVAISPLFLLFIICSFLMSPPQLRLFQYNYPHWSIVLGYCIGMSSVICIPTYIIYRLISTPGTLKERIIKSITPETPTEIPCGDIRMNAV
Sequence of Sodium-dependent dopamine transporter (P23977 whole entry): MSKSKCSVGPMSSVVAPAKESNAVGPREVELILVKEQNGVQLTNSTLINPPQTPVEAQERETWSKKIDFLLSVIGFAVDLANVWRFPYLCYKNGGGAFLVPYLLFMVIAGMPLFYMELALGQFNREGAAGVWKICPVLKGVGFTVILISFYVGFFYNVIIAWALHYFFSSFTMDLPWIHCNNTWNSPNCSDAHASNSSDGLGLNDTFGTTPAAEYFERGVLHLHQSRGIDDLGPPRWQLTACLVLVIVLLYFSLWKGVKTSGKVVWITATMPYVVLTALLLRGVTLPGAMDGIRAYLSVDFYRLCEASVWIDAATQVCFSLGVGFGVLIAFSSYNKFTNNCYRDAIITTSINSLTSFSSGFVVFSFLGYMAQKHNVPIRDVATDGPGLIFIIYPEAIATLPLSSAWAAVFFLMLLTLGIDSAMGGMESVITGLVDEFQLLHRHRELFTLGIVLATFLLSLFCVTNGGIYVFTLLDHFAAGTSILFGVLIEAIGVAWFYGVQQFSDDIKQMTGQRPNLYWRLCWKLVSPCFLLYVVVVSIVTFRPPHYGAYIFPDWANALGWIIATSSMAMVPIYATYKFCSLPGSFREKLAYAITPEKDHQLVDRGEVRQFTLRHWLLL

In series [1], `COC(=O)[C@@H]1C2CC[C@@H](C[C@@H]1OC(=O)c1ccccc1)N2C` (single isomer, unassigned) [COCAINE] showed a logD of 1.51.

`Fc1ccc(C(OC2CC3CCC(C2)N3CCNCc2ccccc2)c2ccc(F)cc2)cc1` (centres undefined) gave an IC50 in the series filed under Rattus norvegicus of 8.1 nM.

Take `O=C(NCCN1C2CCC1CC(OC(c1ccc(F)cc1)c1ccc(F)cc1)C2)c1ccccc1` (centres undefined): the inhibitory constant (Ki) was found to be 597 nM in series [2], 637 nM in series [3], 13.1 nM in series [4] and 556 nM in series [5]. This compound also registered a half-inhibitory concentration (IC50) in the series filed under Rattus norvegicus of 6.5 nM.

On to `Fc1ccc(C(OC2CC3CCC(C2)N3CCOCc2cccs2)c2ccc(F)cc2)cc1` (centres undefined), for which the Ki in series [2] came to 2090 nM; in series [3] it was 3450 nM; in series [4] it was 65.9 nM; in series [5] it was 613 nM. This compound displayed a logD in series [1] of 4.19. In the series listed under Rattus norvegicus, this compound gave an IC50 of 18.7 nM.

In the series listed under Rattus norvegicus, `O=C(NCCN1C2CCC1CC(OC(c1ccc(F)cc1)c1ccc(F)cc1)C2)c1cccnc1` (centres undefined) returned a half-inhibitory concentration (IC50) of 14.2 nM.

For `Fc1ccc(C(OC2CC3CCC(C2)N3CCCOc2ccccc2)c2ccc(F)cc2)cc1` (centres undefined), the Ki in series [2] came out at 7730 nM; in series [3] it was 12100 nM; in series [4], 703 nM; in series [5], 9280 nM. Half-maximal inhibition in the series listed under Rattus norvegicus (IC50) required 227 nM.

Regarding `Fc1ccc(C(OC2CC3CCC(C2)N3CCOCc2ccccc2)c2ccc(F)cc2)cc1` (centres undefined), the inhibition constant Ki in series [2] worked out at 1300 nM; in series [3] it was 3060 nM; in series [4], 48.5 nM; in series [5], 390 nM. In the series listed under Rattus norvegicus, this compound came in with an IC50 of 22.3 nM.

Regarding `Fc1ccc(C(OC2CC3CCC(C2)N3CCOCCN2CCOCC2)c2ccc(F)cc2)cc1` (centres undefined), the Ki in series [2] was determined as 23000 nM; in series [3] it was 28100 nM; in series [4], 1620 nM; in series [5], 15800 nM. This compound also showed a pH-dependent lipophilicity (logD) in series [1] of 2.05. In the series filed under Rattus norvegicus, this compound displayed a concentration for half-maximal inhibition (IC50) of 659 nM.

As to `O=C(CCN1[C@@H]2CC[C@H]1C[C@@H](OC(c1ccc(F)cc1)c1ccc(F)cc1)C2)Nc1ccccc1`, the inhibition constant Ki came to 1490 nM in series [2], 1420 nM in series [3], 27.6 nM in series [4] and 3280 nM in series [5]. In the series filed under Rattus norvegicus, this compound had a concentration for half-maximal inhibition (IC50) of 5 nM.

`OCCOCCN1C2CCC1CC(OC(c1ccc(F)cc1)c1ccc(F)cc1)C2` (centres undefined): the Ki stood at 14300 nM in series [2], 3650 nM in series [3], 42.6 nM in series [4] and 336 nM in series [5]. This compound came in with a logD in series [1] of 2.01. The compound also came in with an IC50 in the series listed under Rattus norvegicus of 48.9 nM.

Take `NCCN1[C@@H]2CC[C@H]1C[C@@H](OC(c1ccc(F)cc1)c1ccc(F)cc1)C2`: the inhibition constant (Ki) in series [2] was 4600 nM; in series [3], 1420 nM. Inhibition in the series listed under Rattus norvegicus was half-maximal at 26 nM (IC50).
